{
  "source": "patent US6589984B1",
  "about": "“Benzofurylpyrone derivatives” (Teijin Limited, priority 1998, dated 2003)",
  "data": [
    {"test_system": "Human hepatic cancer cells HepG2", "test": "TG production inhibiting activity (14C-acetic acid incorporation into TG) in HepG2 cells", "type": "cell-based", "details": "Homo sapiens, HepG2; group criterion, alternatives: IC50 at least 10 μM and less than 100 μM, or at least 5% and less than 30% inhibition at 1 μM, or at least 30% and less than 50% inhibition at 10 μM", "protocol": "(§1) Human hepatic cancer cells HepG2 were inoculated into a 24-well plate (Costar No. 3524) at 4×10^4 cells/well, and 1 ml of medium (eRDF medium containing 10% bovine serum (Kyokuto Chemical Co.)) was used for 6 day culturing with 5% CO2 at 37° C. After drawing off the supernatant medium, the cells were freshly rinsed with 1 ml of PBS(−) buffer solution (Takara Shuzo) and drawn off. This procedure was repeated twice and then 1 ml of fresh medium (eRDF medium) was added.\n(§2) 6-(benzofuran-2-yl)-3,5-dimethyl-4-hydroxy-2H-pyran-2-one (Example 2) was dissolved in dimethylsulfoxide (DMSO) to prepare a 20 mM sample stock solution. A diluted solution was obtained by diluting the sample solution with DMSO.\n(§3) To the cells prepared above there were added the sample stock solution or its diluted solution at 5 μl per well and 10 μl of ^14C-acetic acid solution (a solution of Amersham Code No. CFA13 diluted 4.4-fold with PBS(−) buffer), and culturing was carried out for one day with 5% CO2 at 37° C.\n(§4) After the culturing was completed, the culture solution was removed, and 1 ml of extraction solution (a mixture of n-hexane and isopropyl alcohol at 2:1) was added for extraction treatment on the lipid components in the cells. After the treatment, the extract containing the obtained lipid components was air-dried, the residue was redissolved in 20 μl of a mixed solution of n-hexane and ethyl acetate at 9:1, and the solution was spotted on a thin-layer chromatography plate (S319, Tokyo Kasei) and developed by thin-layer chromatography with the mixed solution mentioned above. After air-drying, the lipid components were colored with iodine vapor, the portion corresponding to TG was cut out, and the amount of TG biosynthesized was measured with a liquid scintillation counter.", "units": {"IC50": "µM"}, "values": [
      {"molecule": "Cc1c(-c2cc3cc(C=O)ccc3o2)oc(=O)c(C)c1O", "note": "[Example 7, 3,5-dimethyl-6-(5-formylbenzofuran-2-yl)-4-hydroxy-2H-pyran-2-one]", "IC50": "10 to 100"},
      {"molecule": "CC(=O)Oc1c(C)c(-c2cc3cc(C=O)ccc3o2)oc(=O)c1C", "note": "[Example 8, 4-acetyloxy-3,5-dimethyl-6-(5-formylbenzofuran-2-yl)-2H-pyran-2-one]", "IC50": "10 to 100"},
      {"molecule": "CC(=O)Oc1c(C)c(-c2cc3ccc(O)cc3o2)oc(=O)c1C", "note": "[Example 18, 4-acetyloxy-3,5-dimethyl-6-(6-hydroxybenzofuran-2-yl)-2H-pyran-2-one]", "IC50": "10 to 100"},
      {"molecule": "COC(=O)c1ccc2cc(-c3oc(=O)c(C)c(O)c3C)oc2c1", "note": "[Example 22, 3,5-dimethyl-4-hydroxy-6-(6-(methoxycarbonyl)benzofuran-2-yl)-2H-pyran-2-one]", "IC50": "10 to 100"},
      {"molecule": "CC(=O)Oc1c(C)c(-c2cc3ccc(N(C)C)cc3o2)oc(=O)c1C", "note": "[Example 23, 4-acetyloxy-3,5-dimethyl-6-(6-dimethylaminobenzofuran-2-yl)-2H-pyran-2-one]", "IC50": "10 to 100"},
      {"molecule": "CC(=O)Oc1c(C)c(-c2cc3ccc(-c4ccco4)cc3o2)oc(=O)c1C", "note": "[Example 24, 4-acetyloxy-3,5-dimethyl-6-(6-(2-furyl)benzofuran-2-yl)-2H-pyran-2-one]", "IC50": "10 to 100"},
      {"molecule": "Cc1c(O)cc(-c2cc3ccccc3o2)oc1=O", "note": "[Example 32, 6-(benzofuran-2-yl)-4-hydroxy-3-methyl-2H -pyran-2-one]", "IC50": "10 to 100"},
      {"molecule": "Cc1c(O)c(-c2ccccc2)c(-c2cc3ccccc3o2)oc1=O", "note": "[Example 35, 6-(benzofuran-2-yl)-4-hydroxy-3-methyl-5-phenyl-2H-pyran-2-one]", "IC50": "10 to 100"},
      {"molecule": "COc1c(-c2cc3ccccc3o2)oc(=O)c(C)c1O", "note": "[Example 37, 6-(benzofuran-2-yl)-4-hydroxy-5-methoxy-3-methyl-2H-pyran-2-one]", "IC50": "10 to 100"},
      {"molecule": "Cc1c(-c2cc3ccccc3o2)oc(=O)c(C(C)C)c1O", "note": "[Example 38, 6-(benzofuran-2-yl)-4-hydroxy-3-isopropyl-5-methyl-2H-pyran-2-one]", "IC50": "10 to 100"},
      {"molecule": "Cc1c(-c2cc3ccccc3o2)oc(=O)c(C)c1OS(=O)(=O)C(F)(F)F", "note": "[Example 43, 6-(benzofuran-2-yl)-3,5-dimethyl-4-trifluoromethanesulfonyloxy-2H-pyran-2-one]", "IC50": "10 to 100"},
      {"molecule": "CCNc1ccc2oc(-c3oc(=O)c(C)c(O)c3C)cc2c1", "note": "[Example 46, 3,5-dimethyl-6-(5-(ethylamino)benzofuran-2-yl)-4-hydroxy-2H-pyran-2-one]", "IC50": "10 to 100"}
    ]},
    {"test_system": "Human hepatic cancer cells HepG2", "test": "TG production inhibiting activity (14C-acetic acid incorporation into TG) in HepG2 cells", "type": "cell-based", "details": "Homo sapiens, HepG2; group criterion, alternatives: IC50 less than 10 μM, or at least 30% inhibition at 1 μM, or at least 50% inhibition at 10 μM", "protocol": "as §1, §2, §3, §4", "units": {"IC50": "µM"}, "values": [
      {"molecule": "CC(=O)Oc1c(C)c(-c2cc3ccccc3o2)oc(=O)c1C", "note": "[Example 1, 4-acetyloxy-6-(benzofuran-2-yl)-3,5-dimethyl-2H-pyran-2-one]", "IC50": "< 10"},
      {"molecule": "Cc1c(-c2cc3ccccc3o2)oc(=O)c(C)c1OC(=O)c1ccccc1", "note": "[Example 3, 6-(benzofuran-2-yl)-4-benzoyloxy-3,5-dimethyl-2H-pyran-2-one]", "IC50": "< 10"},
      {"molecule": "Cc1c(-c2cc3ccccc3o2)oc(=O)c(C)c1OS(C)(=O)=O", "note": "[Example 4, 6-(benzofuran-2-yl)-3,5-dimethyl-4-methanesulfonyloxy-2H-pyran-2-one]", "IC50": "< 10"},
      {"molecule": "Cc1c(-c2cc3cc(C=C4SC(=O)NC4=O)ccc3o2)oc(=O)c(C)c1O", "note": "[Example 9, 3,5-dimethyl-6-(5-((3,5-dioxo-2,4-thiazolidinylidene)methyl)benzofuran-2-yl)-4-hydroxy-2H-pyran-2-one]", "IC50": "< 10"},
      {"molecule": "CCCCCc1c(-c2cc3ccccc3o2)oc(=O)c(C)c1O", "note": "[Example 11, 6-(benzofuran-2-yl)-4-hydroxy-3-methyl-5-n-pentyl-2H-pyran-2-one]", "IC50": "< 10"},
      {"molecule": "COc1ccc2oc(-c3oc(=O)c(C)c(O)c3C)cc2c1", "note": "[Example 12, 3,5-dimethyl-4-hydroxy-6-(5-methoxybenzofuran-2-yl)-2H-pyran-2-one]", "IC50": "< 10"},
      {"molecule": "COc1cccc2cc(-c3oc(=O)c(C)c(O)c3C)oc12", "note": "[Example 13, 3,5-dimethyl-4-hydroxy-6-(7-methoxybenzofuran-2-yl)-2H-pyran-2-one]", "IC50": "< 10"},
      {"molecule": "CC(=O)Oc1c(C)c(-c2cc3ccc(OS(=O)(=O)C(F)(F)F)cc3o2)oc(=O)c1C", "note": "[Example 19, 4-acetyloxy-3 ,5-dimethyl-6-(6-(trifluoromethanesulfonyloxy)benzofuran-2-yl)-2H-pyran-2-one]", "IC50": "< 10"},
      {"molecule": "CC(=O)Oc1c(C)c(-c2cc3ccc(-c4cccs4)cc3o2)oc(=O)c1C", "note": "[Example 25, 4-acetyloxy-3,5-dimethyl-6-(6-(2-thienyl)benzofuran-2-yl)-2H-pyran-2-one]", "IC50": "< 10"},
      {"molecule": "COc1ccc2cc(-c3oc(=O)c(C)c(O)c3C)oc2c1", "note": "[Example 26, 3,5-dimethyl-4-hydroxy-6-(6-methoxybenzofuran-2-yl)-2H-pyran-2-one]", "IC50": "< 10"},
      {"molecule": "Cc1c(-c2cc3cc(OCc4cncnc4)ccc3o2)oc(=O)c(C)c1O", "note": "[Example 27, 3,5-dimethyl-4-hydroxy-6-(5-(5-pyrimidinylmethoxy)benzofuran-2-yl)-2H-pyran-2-one]", "IC50": "< 10"},
      {"molecule": "Cc1c(-c2cc3ccccc3o2)oc(=O)c(C)c1OC(=O)c1ccc(CO)cc1", "note": "[Example 28, 6-(benzofuran-2-yl)-3,5-dimethyl-4-(4-hydroxymethylbenzoyloxy)-2H-pyran-2-one]", "IC50": "< 10"},
      {"molecule": "COc1ccc(C(=O)Oc2c(C)c(-c3cc4ccccc4o3)oc(=O)c2C)cc1", "note": "[Example 30, 6-(benzofuran-2-yl)-3,5-dimethyl-4-(4-methoxybenzoyloxy)-2H-pyran-2-one]", "IC50": "< 10"},
      {"molecule": "Cc1c(-c2cc3ccccc3o2)oc(=O)c(C)c1OC(=O)Cc1ccccc1", "note": "[Example 31, 6-(benzofuran-2-yl)-3,5-dimethyl-4-phenylacetyloxy-2H-pyran-2-one]", "IC50": "< 10"},
      {"molecule": "CCc1c(-c2cc3ccccc3o2)oc(=O)c(C)c1O", "note": "[Example 33, 6-(benzofuran-2-yl)-5-ethyl-4-hydroxy-3-methyl-2H-pyran-2-one]", "IC50": "< 10"},
      {"molecule": "Cc1c(O)c(C(C)C)c(-c2cc3ccccc3o2)oc1=O", "note": "[Example 34, 6-(benzofuran-2-yl)-4-hydroxy-5-isopropyl-3-methyl-2H-pyran-2-one]", "IC50": "< 10"},
      {"molecule": "Cc1c(O)c(Cc2ccccc2)c(-c2cc3ccccc3o2)oc1=O", "note": "[Example 36, 6-(benzofuran-2-yl)-5-benzyl-4-hydroxy-3-methyl-2H-pyran-2-one]", "IC50": "< 10"},
      {"molecule": "Cc1c(-c2cc3ccccc3o2)oc(=O)c(C)c1OC(=O)C(C)C", "note": "[Example 39, 6-(benzofuran-2-yl)-3,5-dimethyl-4-isobutyryloxy-2H-pyran-2-one]", "IC50": "< 10"},
      {"molecule": "Cc1c(-c2cc3ccccc3o2)oc(=O)c(C)c1OC(=O)COc1ccccc1", "note": "[Example 42, 6-(benzofuran-2-yl)-3,5-dimethyl-4-phenoxyacetyloxy-2H-pyran-2-one]", "IC50": "< 10"},
      {"molecule": "Cc1c(-c2cc3cc([N+](=O)[O-])ccc3o2)oc(=O)c(C)c1O", "note": "[Example 45, 3,5-dimethyl-4-hydroxy-6-(5-nitrobenzofuran-2-yl)-2H-pyran-2-one]", "IC50": "< 10"},
      {"molecule": "Cc1c(-c2cc3cc(N(C)C)ccc3o2)oc(=O)c(C)c1O", "note": "[Example 48, 3,5-dimethyl-6-(5-(dimethylamino)benzofuran-2-yl)-4-hydroxy-2H-pyran-2-one]", "IC50": "< 10"},
      {"molecule": "Cc1c(-c2cc3cc(N(Cc4ccccc4)Cc4ccccc4)ccc3o2)oc(=O)c(C)c1O", "note": "[Example 49, 6-(5-(dibenzylamino)benzofuran-2-yl)-3,5-dimethyl-4-hydroxy-2H-pyran-2-one]", "IC50": "< 10"}
    ]}
  ]
}
